Data on one compound can be found in ChEMBL document CHEMBL3046349, “Novel Mechanisms of Drug Action: Functional Selectivity at D2 Dopamine Receptors” (Med Chem Res, 2004).

SMILES strings stand for the structures.

The assay is filed under the species Rattus norvegicus. The assay can be described thus: Selectivity ratio of K0.5 for Rattus norvegicus Sprague-Dawley (rat) striatum dopamine D2 receptor to K0.5 for Sprague-Dawley Rattus norvegicus (rat) striatum dopamine D1 receptor. Format: tissue-based.

Regarding `Oc1cc2c(cc1O)[C@H]1c3ccccc3CN[C@@H]1CC2` (relative stereo), the Ratio stood at 10.
